Test results reported in US20050009840A1 (SUGEN, INC., priority 2003, published 2005).
Where “and” joins values, the source holds several entries; their conditions need not be identical. Equal entries are not always repeated.

The compounds below were run against T1, Met kinase domain (GST fusion protein) (Homo sapiens, UniProt P08581) (assay: Met transphosphorylation assay (ELISA, poly(glu-tyr) substrate)). Details: Table 2; read-out: Met IC50.
T1 construct: Purified GST fusion protein containing the Met kinase domain
Assay type: biochemical
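Also: Cell-free ELISA with plate-bound poly(Glu:Tyr 4:1) phosphorylated by GST-fused Met kinase domain plus ATP and Mn2+, phosphotyrosine detected by anti-phosphotyrosine antibody with HRP and ABTS read-out.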

T1 sequence (P08581 1078-1345 limits assumed): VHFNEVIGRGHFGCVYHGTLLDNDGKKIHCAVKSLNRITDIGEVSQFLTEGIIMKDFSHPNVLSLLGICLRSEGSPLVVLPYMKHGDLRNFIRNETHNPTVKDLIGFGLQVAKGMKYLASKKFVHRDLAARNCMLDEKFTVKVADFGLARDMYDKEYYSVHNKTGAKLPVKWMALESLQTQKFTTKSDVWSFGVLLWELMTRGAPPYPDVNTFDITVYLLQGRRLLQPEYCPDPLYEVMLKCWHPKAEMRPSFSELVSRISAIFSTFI

| SMILES | IC50 |
| --- | --- |
| CN(C)[C@H]1CCN(C(=O)c2ccc(-c3cnc(N)c(OCc4ccccc4C(F)(F)F)c3)cc2)C1 [Example I-185, {4-[6-Amino-5-(2-trifluoromethyl-benzyloxy)-pyridin-3-yl]-phenyl}-[(3S)-3-dimethylamino-pyrrolidin-1-yl]-methanone] | 1390 nM |
| Nc1ncc(-c2ccc(C(=O)N3CC[C@H](N)C3)cc2)cc1OCc1ccccc1C(F)(F)F [Example I-186, [(3S)-3-Amino-pyrrolidin-1-yl]-{4-[6-amino-5-(2-trifluoromethyl-benzyloxy)-pyridin-3-yl]-phenyl}-methanone] | 790 nM |
| CN1CCN(C(=O)c2ccc(-c3cnc(N)c(OCc4ccccc4C(F)(F)F)c3)cc2)CC1 [Example I-188, {4-[6-Amino-5-(2-trifluoromethyl-benzyloxy)-pyridin-3-yl]-phenyl}-(4-methyl-piperazin-1-yl)-methanone] | 1640 nM |
| Nc1ncc(-c2ccc(C(=O)NCCN3CCOCC3)cc2)cc1OCc1ccccc1C(F)(F)F [Example I-191, 4-[6-Amino-5-(2-trifluoromethyl-benzyloxy)-pyridin-3-yl]-N-(2-morpholin-4-yl-ethyl)-benzamide] | 5200 nM |
| Nc1ncc(-c2ccc(C(=O)NCCCN3CCOCC3)cc2)cc1OCc1ccccc1C(F)(F)F [Example I-192, 4-[6-Amino-5-(2-trifluoromethyl-benzyloxy)-pyridin-3-yl]-N-(3-morpholin-4-yl-propyl)-benzamide] | 3800 nM |
| Nc1ncc(-c2ccc(C(=O)NCCCN3CCOCC3)cc2)cc1OCc1ccc(F)cc1Cl [Example I-210, 4-[6-Amino-5-(2-chloro-4-fluoro-benzyloxy)-pyridin-3-yl]-N-(3-morpholin-4-yl-propyl)-benzamide] | 5800 nM |
| CN(C)[C@H]1CCN(C(=O)c2ccc(-c3cnc(N)c(OCc4c(F)ccc(F)c4Cl)c3)cc2)C1 [Example I-217, {4-[6-Amino-5-(2-chloro-3,6-difluoro-benzyloxy)-pyridin-3-yl]-phenyl}-[(3S)-3-dimethylamino-pyrrolidin-1-yl]-methanone] | 120 nM |
| Nc1ncc(-c2ccc(C(=O)NCCCN3CCOCC3)cc2)cc1OCc1c(F)ccc(F)c1Cl [Example I-224, 4-[6-Amino-5-(2-chloro-3,6-difluoro-benzyloxy)-pyridin-3-yl]-N-(3-morpholin-4-yl-propyl)-benzamide] | 280 nM |

Further lines, results first:

| IC50 | SMILES |
| --- | --- |
| 3800 nM | CN1CCN(C(=O)c2ccc(-c3cnc(N)c(OCc4ccc(C(C)(C)C)cc4)c3)cc2)CC1 [Example I-197, {4-[6-Amino-5-(4-tert-butyl-benzyloxy)-pyridin-3-yl]-phenyl}-(4-methyl-piperazin-1-yl)-methanone] |
| 3000 nM | CC(=O)N1CCN(C(=O)c2ccc(-c3cnc(N)c(OCc4ccc(C(C)(C)C)cc4)c3)cc2)CC1 [Example I-198, 1-(4-{4-[6-Amino-5-(4-tert-butyl-benzyloxy)-pyridin-3-yl]-benzoyl}-piperazin-1-yl)-ethanone] |
| 6880 nM | CC(C)(C)c1ccc(COc2cc(-c3ccc(C(=O)NCCN4CCOCC4)cc3)cnc2N)cc1 [Example I-200, 4-[6-Amino-5-(4-tert-butyl-benzyloxy)-pyridin-3-yl]-N-(2-morpholin-4-yl-ethyl)-benzamide] |
| 61000 nM | CN(C)[C@H]1CCN(C(=O)c2ccc(-c3cnc(N)c(OCc4ccc(F)cc4Cl)c3)cc2)C1 [Example I-205, {4-[6-Amino-5-(2-chloro-4-fluoro-benzyloxy)-pyridin-3-yl]-phenyl}-[(3S)-3-dimethylamino-pyrrolidin-1-yl]-methanone] |
| 1830 nM | Nc1ncc(-c2ccc(C(=O)N3CC[C@H](N)C3)cc2)cc1OCc1ccc(F)cc1Cl [Example I-206, {4-(6-Amino-5-(2-chloro-4-fluoro-benzyloxy)-pyridin-3-yl]-phenyl}-[(3S)-3-amino-pyrrolidin-1-yl]-methanone] |
| 5000 nM | CN1CCN(C(=O)c2ccc(-c3cnc(N)c(OCc4ccc(F)cc4Cl)c3)cc2)CC1 [Example I-207, {4-(6-Amino-5-(2-chloro-4-fluoro-benzyloxy)-pyridin-3-yl]-phenyl}-(4-methyl-piperazin-1-yl)-methanone] |
| 5300 nM | CC(=O)N1CCN(C(=O)c2ccc(-c3cnc(N)c(OCc4ccc(F)cc4Cl)c3)cc2)CC1 [Example I-208, 1-(4-{4-(6-Amino-5-(2-chloro-4-fluoro-benzyloxy)-pyridin-3-yl]-benzoyl}-piperazin-1-yl)-ethanone] |
| 11000 nM | Nc1ncc(-c2ccc(C(=O)NCCN3CCOCC3)cc2)cc1OCc1ccc(F)cc1Cl [Example I-209, 4-[6-Amino-5-(2-chloro-4-fluoro-benzyloxy)-pyridin-3-yl]-N-(2-morpholin-4-yl-ethyl)-benzamide] |
| 350 nM | Nc1ncc(-c2ccc(C(=O)O)cc2)cc1OCc1c(F)ccc(F)c1Cl [Example I-211, 4 [6 Amino-5-(2-chloro-3,6-difluoro-benzyloxy)-pyridin-3-yl]-benzoic acid] |
| 63 nM | CN1CCN(C(=O)c2ccc(-c3cnc(N)c(OCc4c(F)ccc(F)c4Cl)c3)cc2)CC1 [Example I-212, {4-[6-Amino-5-(2-chloro-3,6-difluoro-benzyloxy)-pyridin-3-yl]-phenyl}-(4-methyl-piperazin-1-yl)-methanone] |
| 100 nM | Nc1ncc(-c2ccc(C(=O)N3CCC(N)CC3)cc2)cc1OCc1c(F)ccc(F)c1Cl [Example I-214, {4-[6-Amino-5-(2-chloro-3,6-difluoro-benzyloxy)-pyridin-3-yl]-phenyl}-(4-amino-piperidin-1-yl)-methanone] |
| 53 nM | Nc1ncc(-c2ccc(C(=O)N3CC[C@@H](N)C3)cc2)cc1OCc1c(F)ccc(F)c1Cl [Example I-218, {4-[6-Amino-5-(2-chloro-3,6-difluoro-benzyloxy)-pyridin-3-yl]-phenyl}-[(3R)-3-amino-pyrrolidin-1-yl]-methanone] |
| 95 nM | Nc1ncc(-c2ccc(C(=O)N3CC[C@H](N)C3)cc2)cc1OCc1c(F)ccc(F)c1Cl [Example I-219, {4-[6-Amino-5-(2-chloro-3,6-difluoro-benzyloxy)-pyridin-3-yl]-phenyl}-[(3S)-3-amino-pyrrolidin-1-yl]-methanone] |
| 110 nM | CN1CCC(NC(=O)c2ccc(-c3cnc(N)c(OCc4c(F)ccc(F)c4Cl)c3)cc2)CC1 [Example I-220, 4-[6-Amino-5-(2-chloro-3,6-difluoro-benzyloxy)-pyridin-3-yl]-N-(1-methyl-piperidin-4-yl)-benzamide] |
| 180 nM | Nc1ncc(-c2ccc(C(=O)NCCN3CCCC3)cc2)cc1OCc1c(F)ccc(F)c1Cl [Example I-221] |
| 190 nM | Nc1ncc(-c2ccc(C(=O)NCCCN3CCCC3)cc2)cc1OCc1c(F)ccc(F)c1Cl [Example I-222] |
| 165 nM | Nc1ncc(-c2ccc(C(=O)NCCN3CCOCC3)cc2)cc1OCc1c(F)ccc(F)c1Cl [Example I-223] |
| 3700 nM and 600 nM | Nc1ncc(-c2cccc(C(=O)O)c2)cc1OCc1c(F)ccc(F)c1Cl [Example I-225, 3-[6-Amino-5-(2-chloro-3,6-difluoro-benzyloxy)-pyridin-3-yl]-benzoic acid] |

Same assay, conditions: read-out: Met IC50

| IC50 [nM] | SMILES |
| --- | --- |
| 2050 | N#Cc1ccccc1COc1cc(-c2ccc(C(=O)N3CC[C@H](N)C3)cc2)cnc1N [Example I-164] |
| 3200 | CN1CCN(C(=O)c2ccc(-c3cnc(N)c(OCc4ccccc4C#N)c3)cc2)CC1 [Example I-166, 2-{2-Amino-5-[4-(4-methyl-piperazine-1-carbonyl)-phenyl]-pyridin-3-yloxymethyl}-benzonitrile] |
| 5700 | CC(=O)N1CCN(C(=O)c2ccc(-c3cnc(N)c(OCc4ccccc4C#N)c3)cc2)CC1 [Example I-167, 2-{5-[4-(4-Acetyl-piperazine-1-carbonyl)-phenyl]-2-amino-pyridin-3-yloxymethyl}-benzonitrile] |
| 8600 | N#Cc1ccccc1COc1cc(-c2ccc(C(=O)NCCN3CCOCC3)cc2)cnc1N [Example I-169, 4-[6-Amino-5-(2-cyano-benzyloxy)-pyridin-3-yl]-N-(2-morpholin-4-yl-ethyl)-benzamide] |
| 1200 | Nc1ncc(-c2ccc(C(=O)N3CC[C@H](N)C3)cc2)cc1OCc1ccc(Cl)cc1Cl [Example I-175, {4-[6-Amino-5-(2,4-dichloro-benzyloxy)-pyridin-3-yl]-phenyl}-[(3S)-3-amino-pyrrolidin-1-yl]-methanone] |
| 790 | CN1CCN(C(=O)c2ccc(-c3cnc(N)c(OCc4ccc(Cl)cc4Cl)c3)cc2)CC1 [Example I-177, {4-[6-Amino-5-(2,4-dichloro-benzyloxy)-pyridin-3-yl]-phenyl}-(4-methyl-piperazin-1-yl)-methanone] |
| 1670 | CC(=O)N1CCN(C(=O)c2ccc(-c3cnc(N)c(OCc4ccc(Cl)cc4Cl)c3)cc2)CC1 [Example I-178, 1-(4-{4-[6-Amino-5-(2,4-dichloro-benzyloxy)-pyridin-3-yl]-benzoyl}-piperazin-1-yl)-ethanone] |
| 3800 | Nc1ncc(-c2ccc(C(=O)NCCN3CCOCC3)cc2)cc1OCc1ccc(Cl)cc1Cl [Example I-180, 4-[6-Amino-5-(2,4-dichloro-benzyloxy)-pyridin-3-yl]-N-(2-morpholin-4-yl-ethyl)-benzamide] |

| SMILES | IC50 [nM] |
| --- | --- |
| CN(C)[C@H]1CCN(C(=O)c2ccc(-c3cnc(N)c(OCc4ccccc4C#N)c3)cc2)C1 [Example I-163, 2-{2-Amino-5-[4-((3S)-3-dimethylamino-pyrrolidine-1-carbonyl)-phenyl]-pyridin-3-yloxymethyl}-benzonitrile] | > 20000 |
| N#Cc1ccccc1COc1cc(-c2ccc(C(=O)NCCCN3CCOCC3)cc2)cnc1N [Example I-170, 4-[6-Amino-5-(2-cyano-benzyloxy)-pyridin-3-yl]-N-(3-morpholin-4-yl-propyl)-benzamide] | 17300 |
| CN(C)[C@H]1CCN(C(=O)c2ccc(-c3cnc(N)c(OCc4ccc(Cl)cc4Cl)c3)cc2)C1 [Example I-174, {4-[6-Amino-5-(2,4-dichloro-benzyloxy)-pyridin-3-yl]-phenyl}-[(3S)-3-dimethylamino-pyrrolidin-1-yl]-methanone] | 800 |
| Nc1ncc(-c2ccc(C(=O)NCCCN3CCOCC3)cc2)cc1OCc1ccc(Cl)cc1Cl [Example I-181, 4-[6-Amino-5-(2,4-dichloro-benzyloxy)-pyridin-3-yl]-N-(3-morpholin-4-yl-propyl)-benzamide] | 2000 |
